Like-named read-outs stand apart in the source and are kept apart here.

In one assay the test system is U-87 cells. Kind of assay: Combination assay: equimolar fragment mixtures vs hybrids on U-87. The format is cell-based, human. On the procedure: (§1) The compounds were dissolved in dimethyl sulfoxide (DMSO) as 10 mM standard stock solutions and kept at -20°C with minimum light exposure. Immediately before each experiment, the stock solution was used and diluted with a culture medium to get the final concentrations. The values of half-maximal inhibitory concentration (IC50) were determined by exposure of the cells into eight different concentrations of each tested compound (0.39, 0.78, 1.56, 3.125, 6.25, 12.5, 25 and 50 μM). Temozolomide (TMZ) and cisplatin were used as positive controls in the case of U-87 and the gynecological cell lines, respectively. The negative control wells included the cells with only MEM treatment. The plates were incubated for up to 72 hours under the same abovementioned incubation conditions. The colorimetric MTT assay was used to assess the compounds’ effect on cell proliferation. Briefly, 20 μL of MTT solution ([3-(4,5-dimethylthiazol-2-yl)-2,5-diphenyltetrazolium bromide], 5 mg/mL in PBS, Duchefa Biochemie BV, Haarlem, The Netherlands) was added to each well including the negative controls and kept under the usual incubation circumstances for additional four hours. Subsequently, the media was carefully aspirated and 100 μL of DMSO was added to each well and the plates were gently shaken for 30 min to solubilize the precipitated crystals of purple formazan. Absorbance was measured at a wavelength of 545 nm using a microplate UV-VIS reader (SPECTROstar Nano, BMG Labtech GmbH, Offenburg, Germany). The same procedure was performed using MRC-5 cells to determine the cancer selectivity of the most promising test compounds.
Combination study was performed by treating cells with equimolar mixtures of the abovementioned fragments or their hybrids, and corresponding cell viability data were comparatively evaluated. In this bioassay, at least two separate experiments were performed, each in triplicate. The dataset was then subjected to appropriate statistical analysis. The calculated IC50 values were subsequently employed to quantitatively assess the extent of pharmacological benefit obtained through the hybridization of fragments in comparison to the cytotoxic effect produced by the experimental combination of PA or its derivatives and TQ fragments.
(§2) Cell viability data were collected from two separate experiments in triplicates and evaluated using GraphPad Prism 9.5.1 (GraphPad Software Inc., San Diego, CA, USA). The half-maximal inhibitory concentration (IC50) values were determined using the log inhibitor vs normalized response nonlinear regression model. Difference between the IC50 values of a hybrid and its corresponding fragments’ experimental combination was statistically evaluated using unpaired T-test. Cancer selectivity of the most promising test compounds was characterized by calculating and comparing their selectivity index (SI). The value of the parameter derives from the ratio of IC50 value of test compound on MRC-5 cells and that on U-87 cells. The higher the value, the better the cancer selectivity of the test compound.

In a further assay the test system is U-87 glioblastoma cells. Description: In vitro antiproliferative MTT assay on U-87. In kind it is cell-based, human. As to conditions: Homo sapiens.
Excerpt: (§3) Gynecological cancer cell lines of human origin including breast cancer like the triple negative MDA-MB-231 and estrogen receptor positive MCF-7, […] cervical adenocarcinoma (HeLa), and human glioblastoma (U-87) cell lines were used as in vitro models to study the antiproliferative effects of the evaluated compounds. All cell lines were cultivated in T-75 flasks in a minimal essential medium (MEM) supplemented with 10% heat-inactivated fetal bovine serum (FBS), 1% antibiotic-antimycotic mixture (penicillin-streptomycin-amphotericin B) and 1% non-essential amino acids. Non-cancerous human lung fibroblast cell line (MRC-5) was maintained in low glucose Dulbecco’s Modified Eagle Medium (DMEM) supplemented with 20% heat-inactivated FBS, 1% antibiotic-antimycotic mixture and 4 mM L-glutamine. The cells were incubated at 37°C in 5% CO^2 incubator. The cells were seeded in 96-well plates at a density of 5 x 10^3 in 100 μL per well, except for the U-87 and MRC-5 that were seeded at 1 x 10^4 density and incubated at the same conditions for overnight to allow the cells’ attachment to the well’s bottom before the treatment.
as §1, §2
(Formazan colour is commonly taken as a measure of viable cells.)

The subject of the next assay is HeLa. Kind of assay: In vitro antiproliferative MTT assay on HeLa. The format is cell-based, human. As to conditions: Homo sapiens, HeLa, up to 72 hours, mean of two independent measurements with three replicates each, read-out: Calculated IC50 ± SEM, HeLa.
Excerpt: as §3, §1, §2

In a further assay the test system is MDA-MB-231. Kind of assay: In vitro antiproliferative MTT assay on MDA-MB-231. In kind it is cell-based, human. Conditions: Homo sapiens, MDA-MB-231, up to 72 hours, mean of two independent measurements with three replicates each, read-out: Calculated IC50 ± SEM, MDA-MB-231.
Excerpt: as §3, §1, §2

For assay [1], the system named is MDA-MB-231, MCF-7, HeLa, U-87. Description: In vitro antiproliferative MTT assay, cancer cell line panel. The format is cell-based. As to conditions: Homo sapiens; all tested cancer cell lines; read-out: IC50 values against cancer cells (range over cell lines). From the text: Gynecological cancer cell lines of human origin including breast cancer like the triple negative MDA-MB-231 and estrogen receptor positive MCF-7, […] cervical adenocarcinoma (HeLa), and human glioblastoma (U-87) cell lines were used as in vitro models to study the antiproliferative effects of the evaluated compounds. All cell lines were cultivated in T-75 flasks in a minimal essential medium (MEM) supplemented with 10% heat-inactivated fetal bovine serum (FBS), 1% antibiotic-antimycotic mixture (penicillin-streptomycin-amphotericin B) and 1% non-essential amino acids. […]
The compounds were dissolved in dimethyl sulfoxide (DMSO) as 10 mM standard stock solutions and kept at -20°C with minimum light exposure. […] Absorbance was measured at a wavelength of 545 nm using a microplate UV-VIS reader (SPECTROstar Nano, BMG Labtech GmbH, Offenburg, Germany). […]
Cell viability data were collected from two separate experiments in triplicates and evaluated using GraphPad Prism 9.5.1 (GraphPad Software Inc., San Diego, CA, USA). The half-maximal inhibitory concentration (IC50) values were determined using the log inhibitor vs normalized response nonlinear regression model. Difference between the IC50 values of a hybrid and its corresponding fragments’ experimental combination was statistically evaluated using unpaired T-test. […]

Another assay relates to MCF-7. Description: In vitro antiproliferative MTT assay on MCF-7. The format is cell-based, human. Conditions: Homo sapiens, MCF7, up to 72 hours, mean of two independent measurements with three replicates each, read-out: Calculated IC50 ± SEM, MCF-7.
Excerpt: as §3, §1, §2

In assay [2] the test system is MRC-5 non-cancerous human lung fibroblast cell line. Description: In vitro antiproliferative MTT assay on MRC-5 (cancer selectivity). The format is cell-based.
Excerpt: as §3, §1, §2

The term IC50 denotes the point on the concentration scale where inhibition reaches its midpoint. On to `CC1=CC(=O)C(C(C)C)=C(CCC(=O)Oc2cc(O)c3c(=O)cc(C4(O)C=CC(=O)C=C4)oc3c2)C1=O` [Compound 14, 5-hydroxy-2-(1-hydroxy-4-oxocyclohexa-2,5-dien-1-yl)-4-oxo-4H-chromen-7-yl 3-(2-isopropyl-5-methyl-3,6-dioxocyclohexa-1,4-dien-1-yl)propanoate], for which the “Hybrid vs corresponding 1:1 fragment mixture, antiproliferative activity in words” value in the assay on U-87 cells (U-87 cells) is reported as “synergism”. Also, the “Fold stronger activity of hybrid than 1:1 mixture of its fragments” value in the assay on U-87 cells (U-87 glioblastoma cells, hybrid vs mixture of fragments 4 and 6) was “ca. three”. Also, the 50% inhibitory concentration (IC50) with U-87 glioblastoma cells (MTT, up to 72 hours, mean of two independent measurements with three replicates each, read-out: Calculated IC50 ± SEM, U-87) is 1160 ± 200 nM; in the assay on U-87 glioblastoma cells (Table 3, U-87 glioblastoma, read-out: Calculated IC50 ± SEM, U-87 (Table 3)), 1160 ± 200 nM; with HeLa, 1060 ± 80 nM; in the assay with MDA-MB-231, 520 ± 20 nM; in assay [1] it was 510 to 1200 nM; in the assay on MCF-7 it was 1200 ± 30 nM. In assay [2] (MRC5, Table 3, non-cancerous human lung fibroblasts, read-out: Calculated IC50 ± SEM, MRC-5), the IC50 was 5100 ± 210 nM. The “Selectivity index SI = IC50 (MRC-5)/IC50 (U-87)” value in assay [2] (MRC-5 vs U-87) is listed as 4.40.

Values taken from publication PMC10810434, “Thymoquinone-protoflavone hybrid molecules as potential antitumor agents” (PLOS ONE, 2024).
